Like-named read-outs stand apart in the source and are kept apart here.
Assays:
[1] = molecular target: T1, recombinant human NK3 receptor (Homo sapiens, UniProt P29371); assay: [3H]SR142801 competition binding assay
T1 construct: expressed in transfected cells; host or cells: HEK293 cells, transient expression; membranes
T1 sequence (P29371 1-465): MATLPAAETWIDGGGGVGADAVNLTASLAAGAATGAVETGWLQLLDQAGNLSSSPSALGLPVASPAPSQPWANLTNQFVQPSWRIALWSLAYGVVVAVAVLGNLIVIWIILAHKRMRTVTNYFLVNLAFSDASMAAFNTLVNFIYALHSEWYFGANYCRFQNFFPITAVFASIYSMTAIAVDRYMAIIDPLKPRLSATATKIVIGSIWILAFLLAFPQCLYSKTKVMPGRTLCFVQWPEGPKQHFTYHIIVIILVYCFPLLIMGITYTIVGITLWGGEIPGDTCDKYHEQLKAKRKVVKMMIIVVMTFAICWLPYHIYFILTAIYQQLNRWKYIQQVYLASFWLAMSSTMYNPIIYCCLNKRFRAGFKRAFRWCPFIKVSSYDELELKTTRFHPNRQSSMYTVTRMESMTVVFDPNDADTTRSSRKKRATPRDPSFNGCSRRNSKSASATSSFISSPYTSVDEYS

NK3 tachykinin receptor = molecular target: T2, NK3 tachykinin receptor (Homo sapiens, UniProt P29371); details: phase II trial, cited from earlier work
T2 sequence (P29371 1-465): T1 sequence (P29371 1-465)

Compound	Ki [1] [nM]	further results
CN(C(=O)Oc1cccc(Cl)n1)[C@@H]1CN(C(=O)C2CCN(C(=O)C3(C)CC3)CC2)C[C@H]1c1ccc(Cl)c(Cl)c1 [Example 300, {(3S,4R)-4-(3,4-Dichloro-phenyl)-1-[1-(1-methyl-cyclopropanecarbonyl)-piperidine-4-carbonyl]-pyrrolidin-3-yl}-methyl-carbamic acid 6-chloro-pyridin-2-yl ester]	2.6	–
CN(C(=O)Oc1ccc(F)cc1)[C@@H]1CN(C(=O)C2CCN(c3ccc(C(F)(F)F)cn3)CC2)C[C@H]1c1ccc(Cl)c(Cl)c1 [Example 306, [(3S,4R)-4-(3,4-Dichloro-phenyl)-1-(5′-trifluoromethyl-3,4,5,6-tetrahydro-2H-[1,2′]bipyridinyl-4-carbonyl)-pyrrolidin-3-yl]-methyl-carbamic acid 4-fluoro-phenyl ester]	0.7	–
CN(C(=O)Oc1ccc(F)cc1)[C@@H]1CN(C(=O)C2CCN(c3ccc(Cl)cn3)CC2)C[C@H]1c1ccc(Cl)c(Cl)c1 [Example 308, [(3S,4R)-1-(5′-Chloro-3,4,5,6-tetrahydro-2H-[1,2′]bipyridinyl-4-carbonyl)-4-(3,4-dichloro-phenyl)-pyrrolidin-3-yl]-methyl-carbamic acid 4-fluoro-phenyl ester]	0.2	–
CN(C(=O)Oc1ccc(F)cc1)[C@@H]1CN(C(=O)C2CCN(c3ccc(F)cn3)CC2)C[C@H]1c1ccc(Cl)c(Cl)c1 [Example 309, [(3S,4R)-4-(3,4-Dichloro-phenyl)-1-(5′-fluoro-3,4,5,6-tetrahydro-2H-[1,2′]bipyridinyl-4-carbonyl)-pyrrolidin-3-yl]-methyl-carbamic acid 4-fluoro-phenyl ester]	0.5	–
CN(C(=O)Oc1ccc(F)cc1)[C@@H]1CN(C(=O)C2CCN(c3ccc(C(N)=O)cn3)CC2)C[C@H]1c1ccc(Cl)c(Cl)c1 [Example 310, [(3S,4R)-1-(5′-Carbamoyl-3,4,5,6-tetrahydro-2H-[1,2′]bipyridinyl-4-carbonyl)-4-(3,4-dichloro-phenyl)-pyrrolidin-3-yl]-methyl-carbamic acid 4-fluoro-phenyl ester]	0.6	–
CN(C(=O)Oc1ccc(F)cc1)[C@@H]1CN(C(=O)C2CCN(c3ccc(F)cn3)CC2)C[C@H]1c1ccc(Cl)c(F)c1 [Example 311, [(3S,4R)-4-(4-Chloro-3-fluoro-phenyl)-1-(5′-fluoro-3,4,5,6-tetrahydro-2H-[1,2′]bipyridinyl-4-carbonyl)-pyrrolidin-3-yl]-methyl-carbamic acid 4-fluoro-phenyl ester]	0.9	–
CN(C(=O)Oc1ccc(F)cc1)[C@@H]1CN(C(=O)C2CCN(c3ccc(Cl)cn3)CC2)C[C@H]1c1ccc(Cl)c(F)c1 [Example 312, [(3S,4R)-4-(4-Chloro-3-fluoro-phenyl)-1-(5′-chloro-3,4,5,6-tetrahydro-2H-[1,2′]bipyridinyl-4-carbonyl)-pyrrolidin-3-yl]-methyl-carbamic acid 4-fluoro-phenyl ester]	0.4	–
CN(C(=O)Oc1ccc(F)cc1)[C@@H]1CN(C(=O)C2CCN(c3ccc(C(F)(F)F)cn3)CC2)C[C@H]1c1ccc(Cl)c(F)c1 [Example 313, [(3S,4R)-4-(4-Chloro-3-fluoro-phenyl)-1-(5′-trifluoromethyl-3,4,5,6-tetrahydro-2H-[1,2′]bipyridinyl-4-carbonyl)-pyrrolidin-3-yl]-methyl-carbamic acid 4-fluoro-phenyl ester]	0.9	–
CC(=O)c1ccc(N2CCC(C(=O)N3C[C@@H](N(C)C(=O)Oc4ccc(F)cc4)[C@H](c4ccc(Cl)c(F)c4)C3)CC2)nc1 [Example 314, [(3S,4R)-1-(5′-Acetyl-3,4,5,6-tetrahydro-2H-[1,2′]bipyridinyl-4-carbonyl)-4-(4-chloro-3-fluoro-phenyl)-pyrrolidin-3-yl]-methyl-carbamic acid 4-fluoro-phenyl ester]	0.6	–
CN(C(=O)Oc1ccc(F)cc1)[C@@H]1CN(C(=O)C2CCN(c3ccc(F)cn3)CC2)C[C@H]1c1ccc(F)c(Cl)c1 [Example 315, [(3S,4R)-4-(3-Chloro-4-fluoro-phenyl)-1-(5′-fluoro-3,4,5,6-tetrahydro-2H-[1,2′]bipyridinyl-4-carbonyl)-pyrrolidin-3-yl]-methyl-carbamic acid 4-fluoro-phenyl ester]	1.7	–
CN(C(=O)Oc1ccc(F)cc1)[C@@H]1CN(C(=O)C2CCN(c3ccc(Cl)cn3)CC2)C[C@H]1c1ccc(F)c(Cl)c1 [Example 316, [(3S,4R)-4-(3-Chloro-4-fluoro-phenyl)-1-(5′-chloro-3,4,5,6-tetrahydro-2H-[1,2′]bipyridinyl-4-carbonyl)-pyrrolidin-3-yl]-methyl-carbamic acid 4-fluoro-phenyl ester]	0.9	–
CN(C(=O)Oc1ccc(F)cc1)[C@@H]1CN(C(=O)C2CCN(c3ccc(C(F)(F)F)cn3)CC2)C[C@H]1c1ccc(F)c(Cl)c1 [Example 317, [(3S,4R)-4-(3-Chloro-4-fluoro-phenyl)-1-(5′-trifluoromethyl-3,4,5,6-tetrahydro-2H-[1,2′]bipyridinyl-4-carbonyl)-pyrrolidin-3-yl]-methyl-carbamic acid 4-fluoro-phenyl ester]	1.6	–
CC(=O)c1ccc(N2CCC(C(=O)N3C[C@@H](N(C)C(=O)Oc4ccc(F)cc4)[C@H](c4ccc(F)c(Cl)c4)C3)CC2)nc1 [Example 318, [(3S,4R)-1-(5′-Acetyl-3,4,5,6-tetrahydro-2H-[1,2′]bipyridinyl-4-carbonyl)-4-(3-chloro-4-fluoro-phenyl)-pyrrolidin-3-yl]-methyl-carbamic acid 4-fluoro-phenyl ester]	0.7	–
CN(C(=O)Oc1ccc(F)cc1)[C@@H]1CN(C(=O)C2CCN(C(=O)[C@@H]3CC(=O)N3)CC2)C[C@H]1c1ccc(Cl)cc1 [Example 319, {(3S,4R)-4-(4-Chloro-phenyl)-1-[1-((S)-4-oxo-azetidine-2-carbonyl)-piperidine-4-carbonyl]-pyrrolidin-3-yl}-methyl-carbamic acid 4-fluoro-phenyl ester]	10.6	–
CN(C(=O)Oc1ccc(F)cc1)[C@@H]1CN(C(=O)C2CCN(c3ccc(O)cn3)CC2)C[C@H]1c1ccc(Cl)cc1 [Example 320, [(3S,4R)-4-(4-Chloro-phenyl)-1-(5′-hydroxy-3,4,5,6-tetrahydro-2H-[1,2′]bipyridinyl-4-carbonyl)-pyrrolidin-3-yl]-methyl-carbamic acid 4-fluoro-phenyl ester]	6.7	–
CC(=O)Oc1ccc(N2CCC(C(=O)N3C[C@@H](N(C)C(=O)Oc4ccc(F)cc4)[C@H](c4ccc(Cl)cc4)C3)CC2)nc1 [Example 321, Acetic acid 4-{(3R,4S)-3-(4-chloro-phenyl)-4-[(4-fluoro-phenoxycarbonyl)-methyl-amino]-pyrrolidine-1-carbonyl}-3,4,5,6-tetrahydro-2H-[1,2′]bipyridinyl-5′-yl ester]	2.4	–
CC(=O)N(C)C1(c2ccccc2)CCN(CCC[C@]2(c3ccc(Cl)c(Cl)c3)CCCN(C(=O)c3ccccc3)C2)CC1 [SR 142,801, Osanetant]	–	activity in the treatment of negative symptoms of schizophrenia (NK3 tachykinin receptor; negative symptoms (depression, anhedonia, social isolation, memory and attention deficits)): inactive; activity on positive symptoms of schizophrenia (NK3 tachykinin receptor; positive symptoms (altered behaviour, delusion, hallucinations, extreme emotions, excited motor activity, incoherent speech)): active
rac-{(3R,4S)-4-(3,4-Dichloro-phenyl)-1-[1-(1-methyl-cyclopropanecarbonyl)-piperidine-4-carbonyl]-pyrrolidin-3-yl}-methyl-carbamic acid (S)-1-(tetrahydro-furan-2-yl)methyl ester and rac-{(3R,4S)-4-(3,4-Dichloro-phenyl)-1-[1-(1-methyl-cyclopropanecarbonyl)-piperidine-4-carbonyl]-pyrrolidin-3-yl}-methyl-carbamic acid (R)-1-(tetrahydro-furan-2-yl)methyl ester [Example 84]	–	Ki ([1]; read-out: Data Ki): 18.3 nM
